According to US8822467B2 (Ligand Pharmaceuticals Inc., priority 2009, dated 2014):

Biological target: T1, human CRTH2 (Homo sapiens, UniProt Q9Y5Y4)
T1 construct: expressed in transfected cells
T1 sequence (Q9Y5Y4 1-395): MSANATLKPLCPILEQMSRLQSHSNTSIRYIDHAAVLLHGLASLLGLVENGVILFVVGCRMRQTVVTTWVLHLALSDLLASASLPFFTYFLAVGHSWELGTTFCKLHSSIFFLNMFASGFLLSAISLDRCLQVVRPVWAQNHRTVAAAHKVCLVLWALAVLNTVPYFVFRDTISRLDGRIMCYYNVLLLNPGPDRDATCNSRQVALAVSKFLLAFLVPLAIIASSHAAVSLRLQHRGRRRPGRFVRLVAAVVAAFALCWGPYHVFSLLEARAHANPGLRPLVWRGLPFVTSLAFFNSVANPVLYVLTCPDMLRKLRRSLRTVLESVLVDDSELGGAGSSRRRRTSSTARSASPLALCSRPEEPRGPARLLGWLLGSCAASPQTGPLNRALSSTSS
Test: [35S]GTPγS binding assay (SPA) on membranes from CHO-K1 cells stably expressing human CRTH2, stimulated with 60 nM DHK-PGD2
Assay type: biochemical
Details: potency class symbols; Table 2; read-out: CRTH2 hGTPγS IC50
Description: [^35S]GTPγS Binding Assay
SPA [^35S]G-TPγS binding was performed on membranes from CHO-K1 cells stably expressing human CRTH2. To a white, clear-bottomed 384-well plate, 4 μg membrane protein was incubated in the binding buffer (20 mM HEPES, pH 7.4, 10 mM MgCl2, 300 mM NaCl, 0.2% BSA) with 60 nM DHK-PGD2, 500 pM [^35S]GTPγS, 10 μM GDP, and 100 μg wheat germ agglutinin-coupled SPA beads (GE Healthcare) with and without increasing concentrations of compounds. The final assay volume was 40 μL and contained 1% DMSO. Samples were incubated for 2 h at ambient temperature. Plates were centrifuged 5 min at 1500 rpm. Plates were read after an additional 4 h using the Trilux 1450 Microbeta (PerkinElmer) with a 30 sec/well reading time.

IC50 | Compound
0.1 to 1 µM | CN(Cc1ccc(OCC(=O)O)c(-c2cccc(F)c2F)c1)S(=O)(=O)c1ccc(F)cc1 [Example 122, 2-(2,3-difluorophenyl)-4-((4-fluoro-N-methylphenylsulfonamido)methyl)phenoxyacetic acid]
1 to 10 µM | COc1ccc(-c2cc(CN(C)S(=O)(=O)c3ccc(F)cc3)ccc2OCC(=O)O)cc1 [Example 164, 2-(4-methoxyphenyl)-4-((4-fluoro-N-methylphenylsulfonamido)methyl)phenoxyacetic acid]
1 to 10 µM | CN(Cc1ccc(OCC(=O)O)c(-c2ccccc2)c1)S(=O)(=O)c1ccc(F)cc1 [Example 178, 2-phenyl-4-((4-fluoro-N-methylphenylsulfonamido)methyl)phenoxyacetic acid]
0.1 to 1 µM | CN(Cc1ccc(OCC(=O)O)c(-c2cccc(O)c2)c1)S(=O)(=O)c1ccc(F)cc1 [Example 132, 2-(3-hydroxyphenyl)-4-((4-fluoro-N-methylphenylsulfonamido)methyl)phenoxyacetic acid]
0.1 to 1 µM | CN(Cc1ccc(OCC(=O)O)c(-c2ccc(F)c(F)c2)c1)S(=O)(=O)c1ccc(F)cc1 [Example 144, 2-(3,4-difluorophenyl)-4-((4-fluoro-N-methylphenylsulfonamido)methyl)phenoxyacetic acid]
0.1 to 1 µM | Cc1ccc(S(=O)(=O)N(C)Cc2ccc(OCC(=O)O)c(-c3cccc(C#N)c3)c2)cc1 [Example 109, 2-(3-cyanophenyl)-4-((4-methyl-N-methylphenylsulfonamido)methyl)phenoxyacetic acid]
0.1 to 1 µM | CN(Cc1ccc(OCC(=O)O)c(-c2cccc(F)c2)c1)S(=O)(=O)c1ccc(F)cc1 [Example 130, 2-(3-fluorophenyl)-4-((4-fluoro-N-methylphenylsulfonamido)methyl)phenoxyacetic acid]
< 0.1 µM | CN(Cc1ccc(OCC(=O)O)c(-c2cccc(S(C)(=O)=O)c2)c1)S(=O)(=O)c1ccc(F)c(F)c1 [Example 47, 2-(3-methylsulfonylphenyl)-4-((3,4-difluoro-N-methylphenylsulfonamido)methyl)phenoxyacetic acid]
< 0.1 µM | CN(Cc1ccc(OCC(=O)O)c(-c2cccc(C#N)c2)c1)S(=O)(=O)c1ccc(F)c(Cl)c1 [Example 62, 2-(3-cyanophenyl)-4-((3-chloro-4-fluoro-N-methylphenylsulfonamido)methyl)phenoxyacetic acid]
0.1 to 1 µM | Cc1nnc(-c2cccc(-c3cc(CN(C)S(=O)(=O)c4ccc(F)cc4)ccc3OCC(=O)O)c2)o1 [Example 129, 2-(3-(5-methyl-1,3,4-oxadiazol-2-yl)phenyl)-4-((4-fluoro-N-methylphenylsulfonamido)methyl)phenoxyacetic acid]
1 to 10 µM | CN(Cc1ccc(OCC(=O)O)c(-c2ccc[n+]([O-])c2)c1)S(=O)(=O)c1ccc(F)cc1 [Example 176, 2-(N-oxy-pyridine-3-yl)-4-((4-fluoro-N-methylphenylsulfonamido)methyl)phenoxyacetic acid]
1 to 10 µM | CN(Cc1ccc(OCC(=O)O)c(-c2ccc(C(F)(F)F)cc2)c1)S(=O)(=O)c1ccc(F)cc1 [Example 162, 2-(4-trifluoromethylphenyl)-4-((4-fluoro-N-methylphenylsulfonamido)methyl)phenoxyacetic acid]
< 0.1 µM | CN(Cc1ccc(OCC(=O)O)c(-c2cc(F)cc(F)c2)c1)S(=O)(=O)c1ccc(F)c(F)c1 [Example 90, 2-(3,5-difluorophenyl)-4-((3,4-difluoro-N-methylphenylsulfonamido)methyl)phenoxyacetic acid]
0.1 to 1 µM | CCN(Cc1ccc(OCC(=O)O)c(-c2cccc(C(F)(F)F)c2)c1)S(=O)(=O)c1ccc(F)cc1 [Example 140, 2-(3-trifluoromethylphenyl)-4-((4-fluoro-N-ethylphenylsulfonamido)methyl)phenoxyacetic acid]
< 0.1 µM | Cc1cc(S(=O)(=O)N(C)Cc2ccc(OCC(=O)O)c(-c3cccc(C#N)c3)c2)ccc1F [Example 66, 2-(3-cyanophenyl)-4-((3-methyl-4-fluoro-N-methylphenylsulfonamido)methyl)phenoxyacetic acid]
1 to 10 µM | CN(Cc1ccc(OCC(=O)O)c(-c2cc(C(F)(F)F)ccn2)c1)S(=O)(=O)c1ccc(F)cc1 [Example 168, 2-(4-trifluoromethylpyridinyl)-4-((4-fluoro-N-methylphenylsulfonamido)methyl)phenoxyacetic acid]

Continued, compound first:

Compound | IC50
CS(=O)(=O)c1cccc(-c2cc(CNS(=O)(=O)c3ccc(F)cc3)ccc2OCC(=O)O)c1 [Example 81, 2-(3-methylsulfonylphenyl)-4-((4-fluorophenylsulfonamido)methyl)phenoxyacetic acid] | < 0.1 µM
CN(Cc1ccc(OCC(=O)O)c(-c2cc(F)cc(F)c2)c1)S(=O)(=O)c1cccc(Cl)c1 [Example 68, 2-(3,5-difluorophenyl)-4-((3-chloro-N-methylphenylsulfonamido)methyl)phenoxyacetic acid] | < 0.1 µM
CN(Cc1ccc(OCC(=O)O)c(-c2cc(F)cc(C#N)c2)c1)S(=O)(=O)c1cc(F)cc(F)c1 [Example 76, 2-(3-cyano-5-fluorophenyl)-4-((3,5-difluoro-N-methylphenylsulfonamido)methyl)phenoxyacetic acid] | < 0.1 µM
CN(Cc1cc(-c2cccc(C#N)c2)c(OCC(=O)O)cc1Cl)S(=O)(=O)c1ccc(F)cc1 [Example 49, 2-(3-cyanophenyl)-4-((4-fluoro-N-methylphenylsulfonamido)methyl)-5-chlorophenoxyacetic acid] | < 0.1 µM
CC(c1ccc(OCC(=O)O)c(-c2cccc(C(F)(F)F)c2)c1)N(C)S(=O)(=O)c1ccc(F)cc1 (centres unmarked) [Example 22, 2-(2-(3-trifluoromethylphenyl)-4-(1-(4-fluoro-N-methylphenylsulfonamido)ethyl)phenoxy)acetic acid] | 0.1 to 1 µM
CN(Cc1ccc(OCC(=O)O)c(-c2cccc(S(C)(=O)=O)c2)c1)S(=O)(=O)c1ccccc1F [Example 94, 2-(3-methylsulfonylphenyl)-4-((2-fluoro-N-methylphenylsulfonamido)methyl)phenoxyacetic acid] | < 0.1 µM
CN(Cc1ccc(OCC(=O)O)c(-c2cccc(S(C)(=O)=O)c2)c1)S(=O)(=O)c1ccccc1 [Example 78, 2-(3-methylsulfonylphenyl)-4-((N-methylphenylsulfonamido)methyl)phenoxyacetic acid] | < 0.1 µM
CN(Cc1ccc(OCC(=O)O)c(-c2cc(F)cc(C#N)c2)c1)S(=O)(=O)c1ccc(Cl)s1 [Example 191, 2-(3-cyano-5-fluorophenyl)-4-((2-chloro-N-methylthiophene-5-sulfonamido)methyl)phenoxyacetic acid] | < 0.1 µM
CN(Cc1ccc(OCC(=O)O)c(-c2cccc(C(F)(F)F)c2)c1)S(=O)(=O)c1ccccc1Cl [Example 170, 2-(3-trifluoromethylphenyl)-4-((2-chloro-N-methylphenylsulfonamido)methyl)phenoxyacetic acid] | 1 to 10 µM
CN(Cc1ccc(OC(C)(C)C(=O)O)c(-c2cccc(C(F)(F)F)c2)c1)S(=O)(=O)c1ccc(F)cc1 [Example 34, 2-(2-(3-trifluoromethylphenyl)-4-((4-fluoro-N-methylphenylsulfonamido)methyl)phenoxy)-2-methylpropanoic acid] | 1 to 10 µM
CN(Cc1ccc(OCC(=O)O)c(-c2cccc(C(F)(F)F)c2)c1)S(=O)(=O)c1cccnc1 [Example 149, 2-(3-trifluoromethylphenyl)-4-((N-methylpyridine-3-sulfonamido)methyl)phenoxyacetic acid] | 0.1 to 1 µM
CN(Cc1ccc(OCC(=O)O)c(-c2cccc(C(=O)N3CCOCC3)c2)c1)S(=O)(=O)c1ccc(F)cc1 [Example 175, 2-(3-morpholinocarbonylphenyl)-4-((4-fluoro-N-methylphenylsulfonamido)methyl)phenoxyacetic acid] | 1 to 10 µM
CC(C)N(Cc1ccc(OCC(=O)O)c(-c2cccc(C(F)(F)F)c2)c1)S(=O)(=O)c1cc(F)cc(F)c1 [Example 174, 2-(3-trifluoromethylphenyl)-4-((3,5-difluoro-N-isopropylphenylsulfonamido)methyl)phenoxyacetic acid] | 1 to 10 µM
CN(Cc1ccc(OCC(=O)O)c(-c2cncnc2)c1)S(=O)(=O)c1ccccc1 [Example 172, 2-(pyrimidin-5-yl)-4-((N-methylphenylsulfonamido)methyl)phenoxyacetic acid] | 1 to 10 µM
CN(Cc1ccc(OCC(=O)O)c(-c2cccc(S(C)(=O)=O)c2)c1)S(=O)(=O)c1cc(F)cc(F)c1 [Example 72, 2-(3-methylsulfonylphenyl)-4-((3,5-difluoro-N-methylphenylsulfonamido)methyl)phenoxyacetic acid] | < 0.1 µM
CN(Cc1ccc(OCC(=O)O)c(-c2cccc(C(F)(F)F)c2)c1)S(=O)(=O)c1cccc2ccccc12 [Example 145, 2-(3-trifluoromethylphenyl)-4-((N-methylnaphthalene-1-sulfonamido)methyl)phenoxyacetic acid] | 0.1 to 1 µM
